Like-named read-outs stand apart in the source and are kept apart here.
Key:
[1] = previously reported; cited from earlier work
[2] = previously reported; cited from earlier work; remark: listed apart in the source
[3] = system: extension templates (TT, TA, TC, and TG); test: Nucleotide imbalance fidelity assay (rare base titration, NGS readout); assay type: biochemical
From the text: Extension templates (TT, TA, TC, and TG) were designed for all four rare base contexts (Table 2). Templates were 100 bp in length and contained a single T, A, C, or G, or Error-Enriched Site (EES), near the middle of the template. Extension templates were designed to contain only three bases, with the exception of the EES (fourth base) and the extension primer-binding site. For each template type, the EES was flanked by 3 degenerate bases before the EES and 3 degenerate bases after the EES in order to create the following sequence context libraries: VVVTVVV, BBBABBB, DDDCDDD, and HHHGHHH (using IUPAC ambiguity codes). Because each of the 6 degenerate sites can be composed of 3 possible bases, each template library contained 729 (3^6) unique sequence contexts surrounding the EES. With the exception of the 6 bases flanking the EES, template sequences within a given library were identical. All templates contained a 3′ dideoxy-C modification to prevent extension from the template strand during a final PCR amplification step. Extension templates were purified via PAGE (Integrated DNA Technologies).
Individual annealing reactions were performed for each template type (TT, TA, TC, TG). Primer/template DNA was prepared by mixing PEXT with each template library in a 1:1.5 molar ratio (70 nM primer: 105 nM template) in a 1× reaction buffer specific to each DNA polymerase being tested (Table 1). The extension primer was annealed to template DNA by incubation at 95° C. for 2 minutes, followed by a −0.1° C./sec ramp until reaching 4° C.
Primer extension reactions were set up in duplicate for each condition being tested. Biological replicate reactions were performed in parallel, with the same annealed primer/template sample used for both replicates. For each DNA polymerase and rare base context of interest, 9 rare base concentrations were tested (log-fold dilutions from 10 μM-0.1 pM) while the concentration of the 3 non-rare bases was held constant at 10 μM (Bioline).
Primer extension reactions consisted of 1 μL of annealing reaction, 1× dNTP stocks ([…]+variable [dRTP]), variable DNA polymerase units, and 1×DNA polymerase reaction buffer in a 10 μL reaction. Extension reaction conditions for DNA polymerases tested are described in Table 1. Extension reactions were incubated for 1 hour and stored at −20° C. until purification. The Fluent Automated Liquid Handling Platform (Tecan) was used to set up all primer extension reactions.
The sample preparation pipeline for NGS was adapted from a previous protocol (Ref. 28; herein incorporated by reference in its entirety). Products from individual rare base extension reactions were column purified in 96-well plate format using the ZR-96 DNA Clean & Concentrator-5 (Deep well format) kit (Zymo Research). Purified DNA products were eluted in 10 μL of water and stored at −20° C. until ligation. Next, a 22 bp universal tag, common sequence 2 (CS2) of the Fluidigm Access Array Barcode Library for Illumina Sequencers (Fluidigm), synthesized as duplex DNA with a 5′ phosphate modification and PAGE purified (Integrated DNA Technologies, Table 2) was blunt-end ligated to the 3′ end of extended products. Ligation reactions were carried out in 10 μL volumes and consisted of 6 μL of purified product, 30 nM CS2 duplex DNA, 1× T4 DNA Ligase Reaction Buffer (New England Biolabs), and 2000 Units of T4 DNA Ligase (New England Biolabs). Ligation reactions were incubated at 16° C. for 16 hours. Ligated products were stored at −20° C. until PCR.
PCR was performed with barcoded primer sets from the Access Array Barcode Library for Illumina Sequencers (Fluidigm) to label extension products from up to 384 individual reactions. Each PCR primer set contained a unique barcode in the reverse primer. From 5′-3′, the forward PCR primer (PE1_CS1) contained a 25 base paired-end Illumina adapter 1 sequence followed by CS1. The binding target of the forward PCR primer was the reverse complement of the CS1 tag built into PEXT. […]

[4] = previously reported; cited from earlier work; remark: listed apart in the source
[5] = previously reported; cited from earlier work; remark: listed apart in the source
[6] = previously reported; cited from earlier work; remark: listed apart in the source
[7] = previously reported; cited from earlier work; remark: listed apart in the source
[8] = system: lacZ template; conditions: cited from earlier work
[9] = "C" template context, lowest [dRTP] tested (10^−7 μM)
[10] = All Four Contexts, fit of duplicate data from all four template contexts (n = 8), average FC50
[11] = BBBABBB template context, n = 2
[12] = DDDCDDD template context, n = 2
[13] = HHHGHHH template context, n = 2
[14] = VVVTVVV template context, n = 2

Phi29: high fidelity polymerase with proofreading ability (New England Biolabs)
Error Rate [1]: 0.0000095 errors/bp | Error Rate [2]: 0.000003 errors/bp | preferred error type [3, 9]: C:dTTP | FC50 [3, 10]: 0.000861 µM | FC50 [3, 11]: 0.000877 µM | preferred error type ([3]; DDDCDDD context, −1 G): C:dATP | preferred error type ([3]; DDDCDDD context, −1 T): C:dTTP | FC50 [3, 12]: 0.00125 µM | FC50 [3, 13]: 0.00139 µM | FC50 [3, 14]: 0.000475 µM | estimated (FC50-derived) error rate versus mean of the two reported literature error rates ([3]; average FC50 converted with Equation 9): 2.7 fold

Taq: widely used commercial DNA polymerase (New England Biolabs)
Error Rate [4]: 0.0002 subs/bp | Error Rate [5]: 0.00021 errors/bp | Error Rate [6]: 0.00018 errors/bp | Error Rate [7]: 0.00011 subs/bp | preferred error type ([3]; "A" template context, lowest [dRTP] tested (10^−7 μM)): A:dATP | preferred error type [3, 9]: C:dATP | preferred error type ([3]; "G" template context, lowest [dRTP] tested (10^−7 μM)): G:dTTP | FC50 [3, 10]: 0.00267 µM | FC50 [3, 11]: 0.00261 µM | FC50 [3, 12]: 0.00215 µM | FC50 [3, 13]: 0.00208 µM | FC50 [3, 14]: 0.00405 µM

B1: Sulfolobus solfataricus Dpo4: a close homologue of S. islandicus Dpo4, literature data (protein, UniProt Q97W02 1-352, looked up)
DNA polymerase IV: MIVLFVDFDYFYAQVEEVLNPSLKGKPVVVCVFSGRFEDSGAVATANYEARKFGVKAGIPIVEAKKILPNAVYLPMRKEVYQQVSSRIMNLLREYSEKIEIASIDEAYLDISDKVRDYREAYNLGLEIKNKILEKEKITVTVGISKNKVFAKIAADMAKPNGIKVIDDEEVKRLIRELDIADVPGIGNITAEKLKKLGINKLVDTLSIEFDKLKGMIGEAKAKYLISLARDEYNEPIRTRVRKSIGRIVTMKRNSRNLEEIKPYLFRAIEESYYKLDKRIPKAIHVVAVTEDLDIVSRGRTFPHGISKETAYSESVKLLQKILEEDERKIRRIGVRFSKFIEAIGLDKFFDT
error preferences ([8]; at A sites): A:dATP>A:dCTP>A:dGTP | error preferences ([8]; at C sites): C:dCTP>C:dATP=C:dTTP | error preferences ([8]; at G sites): G:dTTP>G:dGTP>G:dATP | error preferences ([8]; at T sites): T:dGTP>T:dCTP T:dTTP
